Test results published in ChEMBL document CHEMBL1909529, “Molecular dynamics simulations and MM/GBSA methods to investigate binding mechanisms of aminomethylpyrimidine inhibitors with DPP-IV” (Bioorg Med Chem Lett, 2011).

Biological target: Dipeptidyl peptidase 4 (Homo sapiens, UniProt P27487)
Assay: Inhibition of DPP4

Sequence of Dipeptidyl peptidase 4 (P27487 whole entry): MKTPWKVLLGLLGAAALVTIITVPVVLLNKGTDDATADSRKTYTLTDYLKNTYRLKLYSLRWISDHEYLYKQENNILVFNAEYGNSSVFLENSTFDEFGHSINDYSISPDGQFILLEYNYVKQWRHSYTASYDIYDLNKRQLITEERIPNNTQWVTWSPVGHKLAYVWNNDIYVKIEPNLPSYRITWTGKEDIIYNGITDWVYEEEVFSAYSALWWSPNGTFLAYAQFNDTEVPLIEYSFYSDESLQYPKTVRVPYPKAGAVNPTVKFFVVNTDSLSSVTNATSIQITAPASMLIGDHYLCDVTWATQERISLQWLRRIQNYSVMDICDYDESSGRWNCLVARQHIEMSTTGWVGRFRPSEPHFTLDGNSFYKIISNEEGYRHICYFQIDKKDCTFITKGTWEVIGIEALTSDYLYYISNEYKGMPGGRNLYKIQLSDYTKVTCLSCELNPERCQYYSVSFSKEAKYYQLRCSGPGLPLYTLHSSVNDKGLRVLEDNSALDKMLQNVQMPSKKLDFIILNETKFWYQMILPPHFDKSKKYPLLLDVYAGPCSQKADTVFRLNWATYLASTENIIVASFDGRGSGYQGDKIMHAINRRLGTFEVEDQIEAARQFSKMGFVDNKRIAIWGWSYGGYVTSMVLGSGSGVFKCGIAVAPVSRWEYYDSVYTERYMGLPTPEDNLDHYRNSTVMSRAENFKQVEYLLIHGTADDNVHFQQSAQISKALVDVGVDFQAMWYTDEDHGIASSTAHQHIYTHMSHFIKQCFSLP

IC50: 3 nM
Compound: NCc1c(N)nc(-c2cc(F)cc(F)c2)nc1-c1ccc(Cl)cc1Cl
